Calls of active or inactive are those of the source. No cut-off for these calls is given here.
Columns and labels:
[1] = Drug distribution in Sprague-Dawley rat kidney at 1 mg/kg, iv measured after 4 hrs by LC-MS/MS analysis; format: ADME, organism-based; details: read-out: Drug uptake
J774.A1 [2] = assay: Inhibition of NF-kappaB pathway in LPS-induced mouse J774.A1 cells assessed as […] in IkappaB-alpha phosphorylation at 10 to 40 uM preincubated with compound for 2 hrs followed by LPS-stimulation and measured after 15 mins by Western blot analysis; format: cell-based; details: dose 10-40 µM, time 135.0 min
[3] = Drug distribution in Sprague-Dawley rat liver at 10 mg/kg, po measured after 8 hrs by LC-MS/MS analysis; format: ADME, organism-based; details: read-out: Drug uptake
[4] = molecular target: T1, Myeloid differentiation primary response protein MyD88 (Homo sapiens, UniProt Q99836); assay: Binding affinity to human MyD88 TIR domain by SPR analysis; details: dose 1.19-5.94 10^-5M
T1 sequence (Q99836 whole entry, the tested form may be a part): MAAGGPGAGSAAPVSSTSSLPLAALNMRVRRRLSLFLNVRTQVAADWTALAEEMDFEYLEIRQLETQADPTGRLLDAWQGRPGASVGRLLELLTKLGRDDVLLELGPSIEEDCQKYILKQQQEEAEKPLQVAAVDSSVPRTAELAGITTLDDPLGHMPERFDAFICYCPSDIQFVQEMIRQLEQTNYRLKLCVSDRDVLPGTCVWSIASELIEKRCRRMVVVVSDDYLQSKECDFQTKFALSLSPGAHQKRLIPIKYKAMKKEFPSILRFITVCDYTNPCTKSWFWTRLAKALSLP

[5] = Drug distribution in Sprague-Dawley rat spleen at 1 mg/kg, iv measured after 2 hrs by LC-MS/MS analysis; format: ADME, organism-based; details: read-out: Drug uptake
[6] = molecular target: T1, Myeloid differentiation primary response protein MyD88; assay: Binding affinity to human MyD88 TIR domain assessed as equilibrium dissociation constant by SPR analysis
[7] = Drug distribution in Sprague-Dawley rat lung at 1 mg/kg, iv measured after 0.5 hrs by LC-MS/MS analysis; format: ADME, organism-based; details: read-out: Drug uptake
Mus musculus [8] = assay: Anti-inflammatory activity against LPS-induced […] mouse model of […] assessed as decrease in TNF-alpha level in serum at 20 mg/kg, po pre-treated with compound for 30 mins followed by LPS stimulation and measured after 6 hrs; format: functional, organism-based; details: time 6.5 hrs
Mus musculus [9] = assay: Anti-inflammatory activity against LPS-induced […] mouse model of […] assessed as alleviation of lung edema by measuring decrease in total lung protein level at 20 mg/kg, po pre-treated with compound for 30 mins followed by LPS stimulation and measured after 6 hrs; format: functional, organism-based; details: time 6.5 hrs
[10] = Drug distribution in Sprague-Dawley rat kidney at 1 mg/kg, iv measured after 2 hrs by LC-MS/MS analysis; format: ADME, organism-based; details: read-out: Drug uptake
Mus musculus [11] = assay: (§1) Anti-inflammatory activity against LPS-induced […] mouse model of […] assessed as alleviation of inflammatory infiltration in lung at 20 mg/kg, po pre-treated with compound for 30 mins followed by LPS stimulation and measured after 6 hrs by H&E staining based histopathological analysis; format: functional, organism-based; details: time 6.5 hrs
[12] = Drug distribution in Sprague-Dawley rat brain at 10 mg/kg, po measured after 8 hrs by LC-MS/MS analysis; format: ADME, organism-based; details: read-out: Drug uptake
[13] = Stability of compound in rat serum at 32 degreeC measured every 2 hrs for 24 hrs by HPLC analysis; format: ADME, cell-free
Mus musculus [14] = assay: Anti-inflammatory activity against LPS-induced […] mouse model of […] assessed as alleviation of lung edema by measuring decrease in wet/dry weight ratio at 20 mg/kg, po pre-treated with compound for 30 mins followed by LPS stimulation and measured after 6 hrs; format: functional, organism-based; details: time 6.5 hrs
[15] = Toxicity in ICR mouse assessed as effect on body weight change at 20 to 400 mg/kg, po measured upto 21 days; format: organism-based; details: in vivo, 504 h, dose 20-400 mg/kg, time < 21 day
Mus musculus [16] = assay: Anti-inflammatory activity against LPS-induced […] mouse model of […] assessed as decrease in IL-6 mRNA level in lung at 20 mg/kg, po pre-treated with compound for 30 mins followed by LPS stimulation and measured after 6 hrs by qRT-PCR analysis; format: functional, organism-based; details: time 6.5 hrs
[17] = Drug distribution in Sprague-Dawley rat liver at 10 mg/kg, po measured after 3 hrs by LC-MS/MS analysis; format: ADME, organism-based; details: read-out: Drug uptake
THP-1 [18] = assay: Anti-inflammatory activity in human THP-1 cells assessed as inhibition of LPS-stimulated TNF-alpha release at 1.25 to 20 uM by ELISA analysis; format: functional, cell-based; details: dose 1.25-20 µM
[19] = Drug distribution in Sprague-Dawley rat lung at 10 mg/kg, po measured after 3 hrs by LC-MS/MS analysis; format: ADME, organism-based; details: read-out: Drug uptake
THP-1 [20] = assay: Anti-inflammatory activity in human THP-1 cells assessed as inhibition of LPS-stimulated IL-6 release at 1.25 to 20 uM by ELISA analysis; format: functional, cell-based; details: dose 1.25-20 µM
[21] = Oral bioavailability in Sprague-Dawley rat at 10 mg/kg measured at 15 to 1440 min by LC-MS/MS analysis; format: ADME, organism-based; details: in vivo, time 15-1440 min
[22] = Drug distribution in Sprague-Dawley rat lung at 10 mg/kg, po measured after 1 hrs by LC-MS/MS analysis; format: ADME, organism-based; details: read-out: Drug uptake
[23] = Cmax in Sprague-Dawley rat at 10 mg/kg, po measured at 15 to 1440 min by LC-MS/MS analysis; format: ADME, organism-based; design: time lower 15 min, dose 10 mg/kg, time upper 1440 min, route po; details: in vivo
J774.A1 [24] = assay: Anti-inflammatory activity in mouse J774.A1 cells assessed as inhibition of LPS-induced IL-6 production at 10 uM pre-stimulated with LPS for 24 hrs followed by compound addition and measured after 0.5 hrs by ELISA analysis relative to control; format: functional
[25] = molecular target: TLR4-MyD88 (Mus musculus) (UniProt Q9QUK6+P22366); assay: Inhibition of MyD88/TLR4 interaction in LPS-stimulated mouse J774.A1 cells at 40 to 80 uM preincubated with compound for 2 hrs followed by LPS stimulation by co-immunoprecipitation analysis; format: cell-based; details: dose 40-80 µM
TLR4-MyD88 (Mus musculus), sequence (P22366 whole entry, looked up): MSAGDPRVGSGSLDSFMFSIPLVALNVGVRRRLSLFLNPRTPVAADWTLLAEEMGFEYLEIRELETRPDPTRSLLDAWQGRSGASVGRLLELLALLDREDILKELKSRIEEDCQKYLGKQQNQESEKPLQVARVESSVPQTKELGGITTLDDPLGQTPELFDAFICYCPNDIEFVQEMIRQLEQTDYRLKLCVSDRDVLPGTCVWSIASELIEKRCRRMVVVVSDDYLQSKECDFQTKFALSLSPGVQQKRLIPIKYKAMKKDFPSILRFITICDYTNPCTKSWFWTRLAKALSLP
TLR4-MyD88 (Mus musculus), sequence (Q9QUK6 whole entry, looked up): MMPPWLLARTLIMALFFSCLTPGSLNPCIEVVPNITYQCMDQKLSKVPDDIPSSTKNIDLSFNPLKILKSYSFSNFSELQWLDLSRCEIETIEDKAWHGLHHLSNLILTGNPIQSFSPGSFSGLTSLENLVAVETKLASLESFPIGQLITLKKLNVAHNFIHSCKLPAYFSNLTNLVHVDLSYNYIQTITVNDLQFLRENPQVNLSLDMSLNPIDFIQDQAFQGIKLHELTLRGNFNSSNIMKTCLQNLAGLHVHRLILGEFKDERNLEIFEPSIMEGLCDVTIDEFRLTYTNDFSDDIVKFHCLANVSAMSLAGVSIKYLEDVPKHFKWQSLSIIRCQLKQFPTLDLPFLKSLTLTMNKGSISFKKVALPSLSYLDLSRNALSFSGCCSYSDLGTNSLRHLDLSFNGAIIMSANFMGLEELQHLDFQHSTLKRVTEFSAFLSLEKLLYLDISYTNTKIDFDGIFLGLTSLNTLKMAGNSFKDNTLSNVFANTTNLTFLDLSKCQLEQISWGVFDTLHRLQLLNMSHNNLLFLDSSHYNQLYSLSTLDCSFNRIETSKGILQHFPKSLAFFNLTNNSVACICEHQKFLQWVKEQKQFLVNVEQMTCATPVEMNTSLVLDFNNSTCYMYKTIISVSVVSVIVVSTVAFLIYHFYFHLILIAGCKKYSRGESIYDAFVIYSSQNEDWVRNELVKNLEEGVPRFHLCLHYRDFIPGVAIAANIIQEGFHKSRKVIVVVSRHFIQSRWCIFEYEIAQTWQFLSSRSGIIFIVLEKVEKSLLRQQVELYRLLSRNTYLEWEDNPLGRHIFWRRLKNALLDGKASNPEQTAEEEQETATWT

Mus musculus [26] = assay: as §1, with “thickened alveolar septa” for “inflammatory infiltration”; format: functional, organism-based; details: time 6.5 hrs
[27] = Drug distribution in Sprague-Dawley rat kidney at 10 mg/kg, po measured after 8 hrs by LC-MS/MS analysis; format: ADME, organism-based; details: read-out: Drug uptake
[28] = AUC (0 to t) in Sprague-Dawley rat at 1 mg/kg, iv measured at 5 to 1440 min by LC-MS/MS analysis; format: ADME, organism-based; design: time upper 1440 min, time lower 5 min, dose 1 mg/kg, route iv; details: in vivo
[29] = Tmax in Sprague-Dawley rat at 1 mg/kg, iv measured at 5 to 1440 min by LC-MS/MS analysis; format: ADME, organism-based; details: in vivo, time 5-1440 min
[30] = Drug distribution in Sprague-Dawley rat brain at 1 mg/kg, iv measured after 4 hrs by LC-MS/MS analysis; format: ADME, organism-based; details: read-out: Drug uptake
J774.A1 [31] = assay: Anti-inflammatory activity in mouse J774.A1 cells assessed as inhibition of LPS-induced TNF-alpha production pre-stimulated with LPS for 24 hrs followed by compound addition and measured after 0.5 hrs by ELISA analysis; format: functional, cell-based
Mus musculus [32] = assay: Anti-inflammatory activity against LPS-induced […] mouse model of […] assessed as alleviation of interstitial edema in lung at 20 mg/kg, po pre-treated with compound for 30 mins followed by LPS stimulation and measured after 6 hrs by H&E staining based histopathological analysis; format: functional, organism-based; details: time 6.5 hrs
Mus musculus [33] = assay: Anti-inflammatory activity against LPS-induced […] mouse model of […] assessed as decrease in TNF-alpha mRNA level in lung at 20 mg/kg, po pre-treated with compound for 30 mins followed by LPS stimulation and measured after 6 hrs by qRT-PCR analysis; format: functional, organism-based; details: time 6.5 hrs
[34] = Toxicity in ICR mouse assessed as mortality at 20 to 400 mg/kg, po measured upto 21 days; format: organism-based; details: in vivo, 504 h, dose 20-400 mg/kg, time < 21 day
[35] = Drug distribution in Sprague-Dawley rat lung at 1 mg/kg, iv measured after 4 hrs by LC-MS/MS analysis; format: ADME, organism-based; details: read-out: Drug uptake

For COc1ccc(NS(=O)(=O)c2ccc(N3CCN(Cc4cccc([N+](=O)[O-])c4)CC3)c([N+](=O)[O-])c2)cn1, the concentration at 4 h [1] was 250 ng/g, the inhibition (J774.A1 [2]) was “Active” and the concentration at 8 h [3] was 249 ng/g. For the same molecule, the Activity [4] was “Dose-Dependent Effect”, the concentration at 2 h [5] was 76.8 ng/g and the Kd [6] was 53 µM. The concentration at 0.5 h [7] was 98.2 ng/g, the Activity (Mus musculus [8]) was “Active” and the Activity (Mus musculus [9]) was “Active”. The concentration at 2 h [10] was 143 ng/g, the Activity (Mus musculus [11]) was “Active” and the concentration at 8 h [12] was 39.9 ng/g. The Stability [13] was “Stable”, the Activity (Mus musculus [14]) was “Active” and the Activity [15] was “Non-Toxic”. For the same molecule, the Activity (Mus musculus [16]) was “Active”, the concentration at 3 h [17] was 287 ng/g and the inhibition (THP-1 [18]) was “Active”. The concentration at 3 h [19] was 37.1 ng/g, the inhibition (THP-1 [20]) was “Active” and the F [21] was 14.2%. For the same molecule, the concentration at 1 h [22] was 41.6 ng/g, the Cmax [23] was 2210 ng/mL and the inhibition at 10 µM (J774.A1 [24]) was 69%. The inhibition [25] was “Active”, the Activity (Mus musculus [26]) was “Active” and the concentration at 8 h [27] was 656 ng/g. It also gave an AUCt [28] of 4795 ng·h/mL, a Tmax [29] of 6 min and a concentration at 4 h [30] of 7.99 ng/g. The IC50 (J774.A1 [31]) was 8.17 µM, the Activity (Mus musculus [32]) was “Active” and the Activity (Mus musculus [33]) was “Active”. The Activity [34] was “Non-Toxic” and the concentration at 4 h [35] was 502 ng/g.
